Measured values: US11186589B2, “Cyanoindoline derivatives as NIK inhibitors” (Janssen Pharmaceutica NV, priority 2016, dated 2021)
Like-named read-outs stand apart in the source and are kept apart here.

Legend:
NIK/MAP3K14 = NIK/MAP3K14 (Homo sapiens (Human), UniProt Q99558); test: Inhibition of auto-phosphorylation of recombinant human NF-kappaB-inducing kinase (NIK/MAP3K14) activity (AlphaScreen); type: biochemical; details: averaged values over all measurements on all batches, 25 microM ATP
Procedure: Inhibition of Auto-Phosphorylation of Recombinant Human NF-kappaB-Inducing Kinase ([…]) Activity (AlphaScreen®)
NIK/MAP3K14 auto-phosphorylation activity was measured using the AlphaScreen® (αscreen) format (Perkin Elmer). All compounds tested were dissolved in dimethyl sulfoxide (DMSO) and further dilutions were made in assay buffer. Final DMSO concentration was […] in assays. Assay buffer was 50 mM Tris pH 7.5 containing 1 mM EGTA (ethylene glycol tetraacetic acid), 1 mM DTT (dithiothreitol), 0.1 mM Na3VO4, 5 mM MgCl2, 0.01% Tween® 20. Assays were carried out in 384 well Alphaplates (Perkin Elmer). Incubations consisted of compound, 25 microM Adenosine-5′-triphosphate (ATP), and 0.2 nM NIK/MAP3K14. Incubations were initiated by addition of GST-tagged NIK/MAP3K14 enzyme, carried out for 1 h at 25° C. and terminated by addition of stop buffer containing anti-phospho-[…] Ser176/180 antibody. Protein A Acceptor and Glutathione-Donor beads were added before reading using an EnVision® Multilabel Plate Reader (Perkin Elmer). Signal obtained in the wells containing blank samples was subtracted from all other wells and IC50's were determined by fitting a sigmoidal curve to % inhibition of control versus Log10 compound concentration.

[1] = tested on: P-IKKα levels in L363 cells; test: Effect of compounds on P-IKKα levels in L363 (NIK translocated multiple myeloma) cells; type: cell-based, human; details: 2 hr treatment, averaged values, read-out: Inhibition of pIKKα_L-363 (IC50 (nM))
Procedure: Effect of Compounds on P-IKKα Levels in L363 (NIK Translocated Multiple Myeloma) Cells
All compounds tested were dissolved in DMSO and further dilutions were made in culture medium. Final DMSO concentration was 1% (v/v) in cell assays. The human L363 cells (ATCC) were cultured in RPMI 1640 medium supplemented with GlutaMax and 10% fetal calf serum (PAA). Cells were routinely maintained at densities of 0.2×10^6 cells per ml—1×10^6 cells per ml at 37° C. in a humidified 5% CO2 atmosphere. Cells were passaged twice a week splitting back to obtain the low density. Cells were seeded in 96 well plates (Nunc 167008) at 2×10^6 per ml media in a volume of 75 μl per well plus 25 μl 1 μg/ml recombinant human B-cell activating factor (BAFF/BLyS/TNFSF13B). Seeded cells were incubated at 37° C. in a humidified 5% CO2 atmosphere for 24 hr. Drugs and/or solvents were added (20 μl) to a final volume of 120 μl. Following 2 hr treatment plates were removed from the incubator and cell lysis was achieved by the addition of 30 μl 5× lysis buffer followed by shaking on a plate shaker at 4° C. for 10 min. At the end of this incubation lysed cells were centrifuged at 800×g for 20 min at 4° C. and the lysate was assessed for P-IKKα levels by sandwich immuno-assay carried out in anti-rabbit antibody coated Mesoscale plates. Within an experiment, the results for each treatment were the mean of 2 replicate wells. For initial screening purposes, compounds were tested using an 8 point dilution curve (serial 1:3 dilutions). For each experiment, controls (containing MG132 and BAFF but no test drug) and a blank incubation (containing MG132 and BAFF and 10 μM ADS125117, a test concentration known to give full inhibition) were run in parallel. The blank incubation value was subtracted from all control and sample values. To determine the IC50 a sigmoidal curve was fitted to the plot of % inhibition of control P-IKKα levels versus Log10 compound concentration.

JJN-3 cells = test: Antiproliferative activity on JJN-3 (NIK translocated) multiple myeloma cells (CellTiter-Glo); type: cell-based, human; details: JJN-3 (NIK translocated) cells, 96 hr treatment, averaged values, read-out: JJN-3 Proliferation inhibition (IC50 (nM))
Procedure: (§1) Determination of Antiproliferative Activity on JJN-3 (NIK Translocated) and KMS12-BM (NIK WT) Multiple Myeloma Cells
(§2) All compounds tested were dissolved in DMSO and further dilutions were made in culture medium. Final DMSO concentration was 0.3% (v/v) in cell proliferation assays. Viability was assessed using CellTiter-Glo cell viability assay kit (Promega). The human JJN-3 and KMS12-BM cells (DSMZ) were cultured in RPMI 1640 medium supplemented with 2 mM L-glutamine, and 10% fetal calf serum (PAA). Cells were routinely kept as suspension cells at 37° C. in a humidified 5% CO2 atmosphere. Cells were passaged at a seeding density of 0.2×10^6/ml twice a week. Cells were seeded in black tissue culture treated 96-well plates (Perkin Elmer). Densities used for plating ranged from 15000 (JJN3) to 20000 (KMS12BM) cells per well in a total volume of […]. Drugs and/or solvents were added (15 μl) to a final volume of 150 μl. Following 96 hr of treatment, plates were removed from the incubator and allowed to equilibrate to room temperature for approx 10 min. 75 μl CellTiter-Glo reagent was added to each well that was then covered (Perkin Elmer Topseal) and shaken on plate shaker for 10 min. Luminescence was measured on a HTS Topcount (Perkin Elmer). Within an experiment, the results for each treatment were the mean of 2 replicate wells. For initial screening purposes, compounds were tested using a 9 point dilution curve (serial 1:3 dilutions). For each experiment, controls (containing no drug) and a blank incubation (containing cells read at the time of compound addition) were run in parallel. The blank value was subtracted from all control and sample values. For each sample, the mean value for cell growth (in relative light units) was expressed as a percentage of the mean value for cell growth of the control.

KMS12-BM cells = test: Antiproliferative activity on KMS12-BM (NIK WT) multiple myeloma cells (CellTiter-Glo); type: cell-based, human; details: 96 hr treatment, averaged values, read-out: KMS-12 Proliferation inhibition (IC50 (nM))
Procedure: as §1, §2

Sequence of NIK/MAP3K14 (Q99558 whole entry): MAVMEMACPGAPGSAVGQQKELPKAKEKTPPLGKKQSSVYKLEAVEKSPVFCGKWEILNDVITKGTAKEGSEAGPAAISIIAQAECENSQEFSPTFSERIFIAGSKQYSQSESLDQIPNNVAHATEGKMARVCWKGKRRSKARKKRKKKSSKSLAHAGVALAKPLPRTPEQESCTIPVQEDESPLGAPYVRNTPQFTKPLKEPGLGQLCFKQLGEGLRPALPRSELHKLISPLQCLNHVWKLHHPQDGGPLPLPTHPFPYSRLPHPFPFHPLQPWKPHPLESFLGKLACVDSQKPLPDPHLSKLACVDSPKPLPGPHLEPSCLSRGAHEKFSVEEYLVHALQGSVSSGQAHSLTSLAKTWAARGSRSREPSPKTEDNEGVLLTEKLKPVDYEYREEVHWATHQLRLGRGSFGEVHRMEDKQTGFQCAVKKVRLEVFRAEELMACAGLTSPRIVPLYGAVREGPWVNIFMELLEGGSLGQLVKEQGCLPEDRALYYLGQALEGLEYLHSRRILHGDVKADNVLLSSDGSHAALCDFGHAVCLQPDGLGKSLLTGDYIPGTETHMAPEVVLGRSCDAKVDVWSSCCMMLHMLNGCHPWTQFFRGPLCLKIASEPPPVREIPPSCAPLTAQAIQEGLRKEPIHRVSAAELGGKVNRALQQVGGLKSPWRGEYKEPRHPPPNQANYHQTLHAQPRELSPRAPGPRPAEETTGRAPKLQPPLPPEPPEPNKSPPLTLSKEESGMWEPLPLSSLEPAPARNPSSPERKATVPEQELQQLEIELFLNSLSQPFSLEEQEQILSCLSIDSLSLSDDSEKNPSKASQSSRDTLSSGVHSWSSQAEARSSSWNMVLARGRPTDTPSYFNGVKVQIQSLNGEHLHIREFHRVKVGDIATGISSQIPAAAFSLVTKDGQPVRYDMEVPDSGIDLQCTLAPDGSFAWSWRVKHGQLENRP

Row | Compound | IC50 (NIK/MAP3K14) [nM] | IC50 ([1]; Homo sapiens, L-363, 2 h) [nM] | IC50 (JJN-3 cells; Homo sapiens, JJN-3, 96 h) [nM] | IC50 (KMS12-BM cells) [nM] | IC50 [1] [nM] | IC50 (JJN-3 cells) [nM] | IC50 (KMS12-BM cells; Homo sapiens, KMS-12-BM, 96 h) [nM]
1 | CC1CCn2ncc(Nc3nccc(-c4cc(C#N)c5c(c4)[C@@](C)(CO)CN5)n3)c2O1 (single isomer, unassigned) [Compound 1b] | 2.8 | 2 | 58 | ~2820 | – | – | –
2 | CC1CCn2ncc(Nc3nccc(-c4cc(C#N)c5c(c4)[C@@](C)(CO)CN5)n3)c2O1 (single isomer, unassigned) [Compound 2b] | 2 | – | – | > 10000 | 4 | 93 | –
3 | CC(C)C1CCn2ncc(Nc3nccc(-c4cc(C#N)c5c(c4)[C@@](C)(CO)CN5)n3)c2O1 (single isomer, unassigned) [Compound 22b] | 7.1 | 3 | – | > 10000 | – | 166 | –
4 | CC(C)C1CCn2ncc(Nc3nccc(-c4cc(C#N)c5c(c4)[C@@](C)(CO)CN5)n3)c2O1 (single isomer, unassigned) [Compound 23b] | 6.9 | – | – | ~2240 | 2 | 45 | –
5 | CC1CCCn2ncc(Nc3nccc(-c4cc(C#N)c5c(c4)[C@@](C)(CO)CN5)n3)c2O1 (single isomer, unassigned) [Compound 29b] | 3.9 | – | – | – | 6 | 85 | > 10000
6 | CC1CCCn2ncc(Nc3nccc(-c4cc(C#N)c5c(c4)[C@@](C)(CO)CN5)n3)c2O1 (single isomer, unassigned) [Compound 30b] | 5.2 | – | – | > 10000 | 13 | 263 | –
7 | CNC(=O)CCn1ccc2c(Nc3nccc(-c4cc(C#N)c5c(c4)C(C)(C)CN5)n3)cc(Cl)cc21 [Compound 1c] | 30.2 | 23 | 26 | – | – | – | 1380
8 | CC(C)(O)Cn1ccc2c(Nc3nccc(-c4cc(C#N)c5c(c4)C(C)(C)CN5)n3)cc(Cl)cc21 [Compound 2c] | 87.1 | 78 | 123 | – | – | – | ~6030
9 | CN1CCn2ncc(Nc3nccc(-c4cc(C#N)c5c(c4)[C@@](C)(CO)CN5)n3)c2C1=O [Compound 3b] | 1 | 3 | 91 | – | – | – | > 10000
10 | C[C@]1(CO)CNc2c(C#N)cc(-c3ccnc(Nc4cnn5c4COCC5)n3)cc21 [Compound 12b] | 1.5 | 4 | 251 | – | – | – | ~549
11 | CN1CCn2nc(Nc3nccc(-c4cc(C#N)c5c(c4)[C@@](C)(CO)CN5)n3)cc2C1=O [Compound 13b] | 2 | 29 | 457 | – | – | – | ~1860
12 | C[C@]1(CO)CNc2c(C#N)cc(-c3ccnc(Nc4cnn5c4OCCC5)n3)cc21 [Compound 14b] | 2 | 6 | 155 | – | – | – | 3980
13 | CN1CCn2ncc(Nc3nccc(-c4cc(C#N)c5c(c4)[C@@](C)(CO)CN5)n3)c2C1 [Compound 15b] | 3.5 | 11 | 200 | – | – | – | ~4470
14 | CC(C)N1CCn2ncc(Nc3nccc(-c4cc(C#N)c5c(c4)[C@@](C)(CO)CN5)n3)c2C1=O [Compound 17b] | 3 | 3 | 309 | – | – | – | > 10000
15 | CN(C)C1COc2c(cc(Cl)cc2Nc2nccc(-c3cc(C#N)c4c(c3)[C@@](C)(CO)CN4)n2)C1 (stereo partly shown) [Compound 18] | 4.1 | 16 | – | 9 | – | 1 | –
16 | CC(C)N1CCn2ncc(Nc3nccc(-c4cc(C#N)c5c(c4)[C@@](C)(CO)CN5)n3)c2C1 [Compound 18b] | 6.2 | 7 | 288 | – | – | – | ~5500
17 | COC[C@@H]1Cn2ncc(Nc3nccc(-c4cc(C#N)c5c(c4)[C@@](C)(CO)CN5)n3)c2O1 [Compound 19b] | 11.7 | 19 | 316 | – | – | – | ~5500
18 | C[C@]1(CO)CNc2c(C#N)cc(-c3ccnc(Nc4cc5c(nc4CCC4CC4)CCOC5)n3)cc21 [Compound 21] | 3 | 21 | 81 | – | – | – | 3890
19 | Cc1cc2c(cc1Nc1nccc(-c3cc(C#N)c4c(c3)[C@@](C)(CO)CN4)n1)CCN(C)CC2 [Compound 23] | 4.8 | ~79 | 162 | – | – | – | ~550
20 | COc1cc2c(cc1Nc1nccc(-c3cc(C#N)c4c(c3)[C@@](C)(CO)CN4)n1)CCN(C)CC2 [Compound 24] | 3 | ~74 | ~214 | – | – | – | ~288
21 | CC1(C)CCOc2c(Nc3nccc(-c4cc(C#N)c5c(c4)[C@@](C)(CO)CN5)n3)cnn21 [Compound 24b] | 4.9 | 28 | 676 | – | – | – | ~5890
22 | COc1nc2c(cc1Nc1nccc(-c3cc(C#N)c4c(c3)[C@@](C)(CO)CN4)n1)COCC2 [Compound 25] | 1.7 | 10 | 174 | – | – | – | > 10000
